In patent US20260097047A1, “Small molecule inhibitors of the ribosome biogenesis factor NVL2” (Board of Regents, The University of Texas System, priority 2023, published 2026):
Like-named read-outs stand apart in the source and are kept apart here.

System: HCT116 cells
Assay: Cell viability assay (CellTiter-Glo, 72 hours) in HCT116 human colorectal cancer cells
Type: cell-based
Details: W
How it was run: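 2,000 cells/well adhered overnight, then compound added by digital dispenser with DMSO normalized to 0.5%. Viability read after 72 h at 37 °C by ATP-based CellTiter-Glo luminescence. IC50 from ten-point curves baseline-corrected to vehicle, five-parameter asymmetric least-squares fit.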

[1] = Table 8, analogs of scaffold drawing 43 defined by R^2, R^3, X/Y, read-out: Activity (IC50 class, cell viability assay)
[2] = cell viability assay, Table 10 analogs of scaffold drawing 45 defined by R2, R3, X/Y, read-out: Activity

Row | SMILES | IC50 [1] [nM] | IC50 [2] [nM]
1 | CO[C@H]1C[C@H](C(=O)Nc2ccc3c(c2)Sc2cc(Cl)ccc2C(=O)N3CC#CCl)C1 [—CH2CCCl; trans-3-MeOcBu; CCI/CH; CH] | < 500 | 
2 | CO[C@H]1C[C@H](C(=O)Nc2cnc3c(c2)Sc2cc(Cl)ccc2C(=O)N3CC#CCl)C1 [—CH2CCCl; trans-3-MeOcBu; CCI/CH; N] | < 500 | 
3 | CO[C@H]1C[C@H](C(=O)Nc2ccc3c(c2)Sc2ccc(F)cc2C(=O)N3CC#CCl)C1 [—CH2CCCl; trans-3-MeOcBu; CH/CF; CH] | < 500 | 
4 | CO[C@H]1C[C@H](C(=O)Nc2cnc3c(c2)Sc2ccccc2C(=O)N3CC#CCl)C1 [—CH2CCCl; trans-3-MeOcBu; CH/CH; N] | < 500 | < 500
5 | C#CCN1C(=O)c2cc(F)ccc2Sc2cc(NC(=O)C3CC(COC)C3)ccc21 (stereo not shown) [—CH2CCH; 3-MeOCH2-cBu; CH/CF; CH] | < 500 | 
6 | C#CCN1C(=O)c2ccc(Cl)cc2Sc2cc(NC(=O)[C@H]3C[C@H](OC)C3)ccc21 [—CH2CCH; trans-3-MeOcBu; CCl/CH; CH] | < 500 | 
7 | C#CCN1C(=O)c2cc(F)ccc2Sc2cc(NC(=O)[C@H]3C[C@H](OC)C3)ccc21 [—CH2CCH; trans-3-MeOcBu; CH/CF; CH] | < 500 | 
8 | C#CCN1C(=O)c2ccccc2Sc2cc(NC(=O)[C@H]3C[C@H](OC)C3)ccc21 [—CH2CCH; trans-3-MeOcBu; CH/CH; CH] | < 500 | < 500
9 | CC#CCN1C(=O)c2ccccc2Sc2cc(NC(=O)C3CNC(=O)C3)ccc21 (stereo not shown) [—CH2CCMe; 2-oxo-pyrrolidin-4-yl; CH/CH; CH] | 1000 to 5000 | 
10 | CC#CCN1C(=O)c2ccccc2Sc2cc(NC(=O)c3cccc(CCC#N)c3)ccc21 [—CH2CCMe; 3-(2′-CNEt)Ph; CH/CH; CH] | < 500 | 
11 | CC#CCN1C(=O)c2ccccc2Sc2cc(NC(=O)c3cccc(C(=O)N(C)C)c3)ccc21 [—CH2CCMe; 3-Me2NC(O)Ph; CH/CH; CH] | < 500 | 
12 | CC#CCN1C(=O)c2cc(F)ccc2Sc2cc(NC(=O)C3CC(COC)C3)cnc21 (stereo not shown) [—CH2CCMe; 3-MeOCH2-cBu; CH/CF; N] | < 500 | 
13 | CC#CCN1C(=O)c2ccc(F)cc2Sc2cc(NC(=O)c3cccc(OC)c3)ccc21 [—CH2CCMe; 3-MeOPh; CF/CH; CH] | < 500 | 
14 | CC#CCN1C(=O)c2cc(F)ccc2Sc2cc(NC(=O)c3cccc(OC)c3)ccc21 [—CH2CCMe; 3-MeOPh; CH/CF; CH] | < 500 | 
15 | CC#CCN1C(=O)c2ccccc2Sc2cc(NC(=O)c3cccc(OC)c3)ccc21 [—CH2CCMe; 3-MeOPh; CH/CH; CH] | < 500 | 
16 | CC#CCN1C(=O)c2ccccc2Sc2cc(NC(=O)c3ccc(OC(F)(F)F)cc3)ccc21 [—CH2CCMe; 4-CF3OPh; CH/CH; CH] | < 500 | 
17 | CC#CCN1C(=O)c2ccc(F)cc2Sc2cc(NC(=O)c3ccc(OCF)cc3)ccc21 [—CH2CCMe; 4-FH2COPh; CF/CH; CH] | < 500 | 
18 | CC#CCN1C(=O)c2ccccc2Sc2cc(NC(=O)c3ccc(OCF)cc3)ccc21 [—CH2CCMe; 4-FH2COPh; CH/CH; CH] | < 500 | 
19 | CC#CCN1C(=O)c2ccc(F)cc2Sc2cc(NC(=O)c3ccc(OC)cc3)ccc21 [—CH2CCMe; 4-MeOPh; CF/CH; CH] | < 500 | 
20 | CC#CCN1C(=O)c2cc(F)ccc2Sc2cc(NC(=O)c3ccc(OC)cc3)ccc21 [—CH2CCMe; 4-MeOPh; CH/CF; CH] | < 500 | 
21 | CC#CCN1C(=O)c2ccccc2Sc2cc(NC(=O)c3ccc(OC)cc3)ccc21 [—CH2CCMe; 4-MeOPh; CH/CH; CH] | < 500 | 
22 | CC#CCN1C(=O)c2ccccc2Sc2cc(NC(=O)c3ccc(OC)cc3)cnc21 [—CH2CCMe; 4-MeOPh; CH/CH; N] | < 500 | 

Row | SMILES | IC50 [1] [nM] | IC50 [2] [nM]
23 | CC#CCN1C(=O)c2ccccc2Sc2cc(NC(=O)C3CNC(=O)C3)ccc21 (stereo not shown) [—CH2CCMe; 5-oxopyrrolidin-3-yl; CH/CH; CH] | < 500 | 
24 | C#Cc1ccc(C(=O)Nc2ccc3c(c2)Sc2ccccc2C(=O)N3CC#CC)cn1 [—CH2CCMe; 6-(HCC)pyrid-3-yl; CH/CH; CH] | < 500 | 
25 | CC#CCN1C(=O)c2ccc(F)cc2Sc2cc(NC(=O)c3ccc(OC)nc3)ccc21 [—CH2CCMe; 6-MeO-pyrid-3-yl; CF/CH; CH] | < 500 | 
26 | CC#CCN1C(=O)c2ccccc2Sc2cc(NC(=O)c3ccc(OC)nc3)ccc21 [—CH2CCMe; 6-MeO-pyrid-3-yl; CH/CH; CH] | < 500 | 
27 | CC#CCN1C(=O)c2ccccc2Sc2cc(NC(=O)c3ccc(OC)nc3)cnc21 [—CH2CCMe; 6-MeO-pyrid-3-yl; CH/CH; N] | < 500 | 
28 | CC#CCN1C(=O)c2ccccc2Sc2cc(NC(=O)CCC#N)ccc21 [—CH2CCMe; (CH2)2CN; CH/CH; CH] | < 500 | 
29 | CC#CCN1C(=O)c2ccccc2Sc2cc(NC(=O)CCCO)cnc21 [—CH2CCMe; (CH2)3 OH; CH/CH; N] | < 500 | 
30 | CC#CCN1C(=O)c2ccc(Cl)cc2Sc2cc(NC(=O)CCCO)ccc21 [—CH2CCMe; (CH2)3OH; CCl/CH; CH] | < 500 | 
31 | CC#CCN1C(=O)c2cc(F)ccc2Sc2cc(NC(=O)CCCO)ccc21 [—CH2CCMe; (CH2)3OH; CH/CF; CH] | < 500 | 
32 | CC#CCN1C(=O)c2ccccc2Sc2cc(NC(=O)CCCO)ccc21 [—CH2CCMe; (CH2)3OH; CH/CH; CH] | < 500 | 
33 | CC#CCN1C(=O)c2cc(F)ccc2Sc2cc(NC(=O)CCCOC)ccc21 [—CH2CCMe; (CH2)3OMe; CH/CF; CH] | < 500 | 
34 | CC#CCN1C(=O)c2ccc(Cl)cc2Sc2cc(NC(=O)CC3COC3)ccc21 [—CH2CCMe; (oxetan-3-yl)CH2; CCl/CH; CH] | < 500 | 
35 | CC#CCN1C(=O)c2ccc(Cl)cc2Sc2cc(NC(=O)CC3COC3)cnc21 [—CH2CCMe; (oxetan-3-yl)CH2; CCl/CH; N] | < 500 | 
36 | CC#CCN1C(=O)c2ccc(F)cc2Sc2cc(NC(=O)CC3COC3)ccc21 [—CH2CCMe; (oxetan-3-yl)CH2; CF/CH; CH] | < 500 | 
37 | CC#CCN1C(=O)c2ccccc2Sc2cc(NC(=O)CC3COC3)ccc21 [—CH2CCMe; (oxetan-3-yl)CH2; CH/CH; CH] | < 500 | 
38 | CC#CCN1C(=O)c2ccccc2Sc2cc(NC(=O)CC3COC3)cnc21 [—CH2CCMe; (oxetan-3-yl)CH2; CH/CH; N] | < 500 | 
39 | CC#CCN1C(=O)c2ccccc2Sc2cc(NC(=O)C#CCOC)ccc21 [—CH2CCMe; CCCH2OMe; CH/CH; CH] | 500 to 1000 | 
40 | CC#CCN1C(=O)c2ccccc2Sc2cc(NC(=O)C#CC)ccc21 [—CH2CCMe; CCMe; CH/CH; CH] | < 500 | 
41 | CC#CCN1C(=O)c2ccccc2Sc2cc(NC(=O)C=CCO)ccc21 [—CH2CCMe; CH—CHCH2OH; CH/CH; CH] | < 500 | 
42 | CC#CCN1C(=O)c2ccccc2Sc2cc(NC(=O)C=CCOC)cnc21 [—CH2CCMe; CH—CHCH2OMe; CH/CH; N] | < 500 | 
43 | CC#CCN1C(=O)c2ccc(Cl)cc2Sc2cc(NC(=O)C=CCO)cnc21 [—CH2CCMe; CH—═CHCH2OH; CCI/CH; N] | < 500 | 
44 | CC#CCN1C(=O)c2ccc(C#N)cc2Sc2cc(NC(=O)C=CCOC)ccc21 [—CH2CCMe; CH—═CHCH2OMe; CCN/CH; CH] | < 500 | 

Row | SMILES | IC50 [1] [nM] | IC50 [2] [nM]
45 | CC#CCN1C(=O)c2ccc(Cl)cc2Sc2cc(NC(=O)C=CCOC)cnc21 [—CH2CCMe; CH—═CHCH2OMe; CCl/CH; N] | < 500 | 
46 | CC#CCN1C(=O)c2cc(F)ccc2Sc2cc(NC(=O)C=CCOC)ccc21 [—CH2CCMe; CH—═CHCH2OMe; CH/CF; CH] | < 500 | 
47 | CC#CCN1C(=O)c2cc(F)ccc2Sc2cc(NC(=O)C=CCOC)cnc21 [—CH2CCMe; CH—═CHCH2OMe; CH/CF; N] | < 500 | 
48 | CC#CCN1C(=O)c2ccc(Cl)cc2Sc2cc(NC(=O)C=CCO)ccc21 [—CH2CCMe; CH═CHCH2OH; CCI/CH; CH] | < 500 | 
49 | CC#CCN1C(=O)c2cc(F)ccc2Sc2cc(NC(=O)C=CCO)ccc21 [—CH2CCMe; CH═CHCH2OH; CH/CF; CH] | < 500 | 
50 | CC#CCN1C(=O)c2cc(F)ccc2Sc2cc(NC(=O)C=CCO)cnc21 [—CH2CCMe; CH═CHCH2OH; CH/CF; N] | < 500 | 
51 | CC#CCN1C(=O)c2ccccc2Sc2cc(NC(=O)C=CCOC)ccc21 [—CH2CCMe; CH═CHCH2OMe; CH/CH; CH] | < 500 | 
52 | CC#CCN1C(=O)c2ccc(Cl)cc2Sc2cc(NC(=O)C(C)CCOC)ccc21 (stereo not shown) [—CH2CCMe; MeO(CH2)2CHMe-; CCI/CH; CH] | < 500 | 
53 | CC#CCN1C(=O)c2cc(F)ccc2Sc2cc(NC(=O)C(C)CCOC)ccc21 (stereo not shown) [—CH2CCMe; MeO(CH2)2CHMe-; CH/CF; CH] | < 500 | 
54 | CC#CCN1C(=O)c2ccccc2Sc2cc(NC(=O)C(C)CCOC)ccc21 (stereo not shown) [—CH2CCMe; MeO(CH2)2CHMe-; CH/CH; CH] | < 500 | 
55 | CC#CCN1C(=O)c2ccccc2Sc2cc(NC(=O)C(C)CCOC)cnc21 (stereo not shown) [—CH2CCMe; MeO(CH2)2CHMe-; CH/CH; N] | < 500 | 
56 | CC#CCN1C(=O)c2ccc(Cl)cc2Sc2cc(NC(=O)NCCOC)ccc21 [—CH2CCMe; NH(CH2)2OMe; CCl/CH; CH] | < 500 | 
57 | CC#CCN1C(=O)c2ccc(Cl)cc2Sc2cc(NC(=O)NCCOC)cnc21 [—CH2CCMe; NH(CH2)2OMe; CCl/CH; N] | < 500 | 
58 | CC#CCN1C(=O)c2ccccc2Sc2cc(NC(=O)NCCOC)ccc21 [—CH2CCMe; NH(CH2)2OMe; CH/CH; CH] | < 500 | 
59 | CC#CCN1C(=O)c2ccccc2Sc2cc(NC(=O)NCCOC)cnc21 [—CH2CCMe; NH(CH2)2OMe; CH/CH; N] | < 500 | 
60 | CC#CCN1C(=O)c2ccc(Cl)cc2Sc2cc(NC(=O)OCCOC)ccc21 [—CH2CCMe; O(CH2)2OMe; CCl/CH; CH] | < 500 | 
61 | CC#CCN1C(=O)c2cc(F)ccc2Sc2cc(NC(=O)OCCOC)ccc21 [—CH2CCMe; O(CH2)2OMe; CH/CF; CH] | < 500 | 
62 | CC#CCN1C(=O)c2ccccc2Sc2cc(NC(=O)OCCOC)ccc21 [—CH2CCMe; O(CH2)2OMe; CH/CH; CH] | < 500 | 
63 | CC#CCN1C(=O)c2ccccc2Sc2cc(NC(=O)OCCOC)cnc21 [—CH2CCMe; O(CH2)2OMe; CH/CH; N] | < 500 | 
64 | CC#CCN1C(=O)c2ccccc2Sc2cc(NC(=O)C3CCC3)ccc21 [—CH2CCMe; cBu; CH/CH; CH] | < 500 | 
65 | CC#CCN1C(=O)c2ccccc2Sc2cc(NC(=O)C3CCC3)cnc21 [—CH2CCMe; cBu; CH/CH; N] | < 500 | 
